PMC10137179, “Assessment of Covalently Binding Warhead Compounds in the Validation of the Cytomegalovirus Nuclear Egress Complex as an Antiviral Target” (Cells, 2023)

Tests used:
[1] = target: T1, pUL50–pUL53 interaction (LgBiT::UL53(1–87)-Flag + SmBiT::UL50-HA) (Human cytomegalovirus, UniProt P16791); format: cell-based; conditions: 293T cells, 5×, 1× or 0.2× anti-HCMV EC50 levels, truncated LgBiT::UL53(1–87)-Flag
T1 construct: expressed in transfected cells; host or cells: 293T

[2] = target: T2, pUL50–pUL53 interaction (LgBiT::UL53-Flag + SmBiT::UL50-HA) (Human cytomegalovirus, UniProt P16791); format: cell-based; conditions: 293T cells, 5×, 1× or 0.2× anti-HCMV EC50 levels, full-length LgBiT::UL53-Flag
T2 construct: expressed in transfected cells; host or cells: 293T
T2 sequence (P16791 whole entry): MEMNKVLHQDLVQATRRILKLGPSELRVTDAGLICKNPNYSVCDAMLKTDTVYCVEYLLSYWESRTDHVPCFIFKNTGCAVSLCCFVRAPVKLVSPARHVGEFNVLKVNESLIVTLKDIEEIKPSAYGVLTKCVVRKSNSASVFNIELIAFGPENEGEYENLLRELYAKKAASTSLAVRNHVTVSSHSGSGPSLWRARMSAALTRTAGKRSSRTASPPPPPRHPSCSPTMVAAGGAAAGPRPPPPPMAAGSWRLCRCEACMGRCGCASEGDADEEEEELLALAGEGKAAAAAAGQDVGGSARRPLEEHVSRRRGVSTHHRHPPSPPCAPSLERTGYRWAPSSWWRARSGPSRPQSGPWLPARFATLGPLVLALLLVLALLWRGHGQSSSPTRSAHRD

[3] = test system: HCMV AD169-GFP; assay: microbe, parasite or virus in culture; format: cell-based, human cytomegalovirus (HCMV); conditions: Human betaherpesvirus 5, AD169, 168 h, clinically relevant warheads, 0.1 µM to 50 µM, AD169-GFP-infected HFFs, 7 d p.i.
Method: Cytotoxicity of the analyzed compounds was determined by the Neutral Red dye uptake assay. A total of 1.35 × 10^5 HFFs per well were seeded in 96-well plates 1 d prior to analysis, cultivated overnight until cells were confluent and then incubated with compounds for 7 days. The assay was performed as described previously using 40 μg/mL Neutral Red (Sigma Aldrich). The quantity of dye incorporation was determined using the Victor X4 microplate reader (PerkinElmer, Waltham, MA, USA) by fluorescence measurement at 560/630 nm for excitation/emission, respectively. To assess antiviral activity of compounds, HFFs seeded in 96-well plates (1.35 × 10^5 HFFs per well) were infected with HCMV AD169-GFP or TB40-IE2-YFP to reach 25–50% infected cells at 7 days post-infection (d p.i.). After incubation with the infectious inoculum for 1.5 h at 37 °C, compounds were added in serial dilutions. At 7 d p.i., cells were fixed for 10 min at room temperature using 10% formalin. Finally, cells were washed once with PBS followed by automated fluorescence quantitation.
Seeking for a novel group of potential antiviral agents, small molecules with covalent protein-binding activity were investigated. These small molecules, originally developed as kinase inhibitors, carry a so-called warhead moiety as an important functional group, such as the prototype afatinib (Figure 1A, red circle). In this study, a series of newly generated warhead compounds (most of which are the property of B.K./Lead Discovery Center, Dortmund, Germany) were used for an evaluation of putative antiviral and core NEC-inhibitory properties. In a first step, the antiviral activity of warheads was analyzed against HCMV TB40-IE2-YFP (Figure 1B) and AD169-GFP (Figure 1C). To this end, HFFs were infected with either of the two viral strains before the GFP or YFP reporter signals were measured at 7 d p.i. (in parallel, putative compound cytotoxicity was determined by Neutral Red assay). The HCMVs AD169-GFP and TB40-IE2-YFP, based on BAC-derived recombinants of the laboratory strains AD169 and TB40, respectively, were both propagated on HFFs, and the produced stocks were then used as two reporter viruses for the assessement of antiviral drug activity. While strain AD169 is mainly restricted in its tropism to fibroblasts, TB40 tropism can be extended to fibroblasts and epithelial and endothelial cells. Here, the use of two strains was intended to illustrate the assumption that antiviral activity of these warhead compounds may be directed to conserved viral target proteins, thus pointing out a minor impact of strains.
(A) Chemical structure of a clinically approved prototype of covalently binding warhead inhibitors, […], afatinib/Gilotrif®. The red circle identifies a functionally active α-, β-unsaturated carbonyl group. (B) At 7 d p.i., compounds were analyzed for their cytotoxicity (orange) and antiviral activity (blue) during HCMV infection, using TB40-IE2-YFP as a reporter virus. Cell viability was assessed through Neutral Red staining of uninfected cells. Measurements were performed in quadruplicate (YFP fluorometry) or triplicate (Neutral Red assay), and standard deviations of mean values are given; EC50, CC50 and SI values are indicated accordingly. (C) In a parallel series of analyses, HCMV AD169-GFP was used as another reporter virus representing a second viral strain. […] HCMV AD169-GFP-infected HFFs were treated with 0.1 µM to 50 µM of the compounds (in parallel Neutral Red assay, 0.1 µM to 100 µM), before the signal assessments were performed at 7 d p.i.

T1 sequence (P16791 whole entry, the tested form may be a part): as the sequence (P16791 whole entry) above

## C=CC(=O)N1CCC[C@@H](n2nc(-c3ccc(Oc4ccccc4)cc3)c3c(N)ncnc32)C1 [ibrutinib]
[1]
  inhibitory effect on NanoBiT interaction signal (in words): most prominent, dose-dependent reduction in the measured interaction signal
[2]
  inhibitory effect on NanoBiT interaction signal (in words): most prominent, dose-dependent reduction in the measured interaction signal
[3]
  EC50: 16 ± 6 µM
